Assay results published in US5349127A, “Expression of herbicide metabolizing cytochromes P450” (priority 1992, dated 1994).

Test system: transformed tobacco seedlings
Test: Tissue culture growth of transformed tobacco seed on 50 nM 10015 (Examples 22-23)
Assay type: in vivo, Nicotiana tabacum
Procedure: Growth medium was prepared from Murishige minimal organics medium (Gibco Laboratories, Grand Island, N.Y.), 8 g/l agar, supplemented with T vitamins (50 ppb biotin, 0.5 ppm pyridoxine HCl, 0.5 ppm thiamine HCl, 5 ppm nicotinic acid, 0.5 ppm folic acid, 2 ppm glycine, 100 ppm myo-inositol), sterilized and placed into sterile PlantCon plant tissue culture containers (Flow Laboratories, McLean, Va.). Tobacco seed obtained from the self-pollination of the primary transformants was surface sterilized by a treatment of not more than 30 min in 20% chlorine bleach, 0.1% sodium dodecyl sulfate, followed by rinsing in distilled water, and placed on the surface of the medium in the sterile containers. Following this treatment, the seed was allowed to germinate and grow under illumination (100 microeinsteins·m^-2 ·s^-1), at 22° C.
Because of the increased phytotoxicity of 10014 over that of 10015, plants grown in media containing 10015 should be growth inhibited if they contain an active cytochrome P450SU1. To test this, seeds of tobacco were grown in tissue culture media supplemented with 50 nM compound 10015, and the results are shown in Table 20.
This technique was used to analyze the progeny of plants transformed with both the gene for SU1 and FeS-B, and the results are shown in Table 21.
Plants transformed With the plasmids pSuFe31 and pSuFe41 were selected for high expression of P450SU1 and FeS-B mRNA by primer extension analysis as described in Example 19, and self pollinated to produce seed. This seed was germinated on medium containing 50 nM of compound 10015 and analyzed for sensitivity to this compound (indicating the presence of an active cytochrome P450SU1 enzyme) as in Example 22.

Structure (SMILES): COc1cc(OC)nc(NC(=O)NS(=O)(=O)c2cccc3c2S(=O)(=O)N(C(C)C)C3)n1 [compound 10015]
- Compound 10015 Sensitive (plants demonstrating result/total plants) (AGS502 (Control)): 0/9
- Number 10015 Resistant (AGS502 (Control)): 32
- Number 10015 Sensitive (AGS502 (Control)): 0
- Ratio Sensitive/Resistant (AGS502 (Control)): 0
- Compound 10015 Sensitive (plants demonstrating result/total plants) (SuFe21.2): 7/9
- Compound 10015 Sensitive (plants demonstrating result/total plants) (SuFe21.5): 8/9
- Compound 10015 Sensitive (plants demonstrating result/total plants) (SuFe21.6): 7/9
- Compound 10015 Sensitive (plants demonstrating result/total plants) (SuFe21.7): 5/7
- Compound 10015 Sensitive (plants demonstrating result/total plants) (SuFe21.8): 10/10
- Number 10015 Resistant (SuFe31.13): 4
- Number 10015 Sensitive (SuFe31.13): 12
- Ratio Sensitive/Resistant (SuFe31.13): 3.0
- Number 10015 Resistant (SuFe31.28): 5
- Number 10015 Sensitive (SuFe31.28): 10
- Ratio Sensitive/Resistant (SuFe31.28): 2.0
- Number 10015 Resistant (SuFe41.34): 32
- Number 10015 Sensitive (SuFe41.34): 0
- Ratio Sensitive/Resistant (SuFe41.34): 0
- Number 10015 Resistant (SuFe41.37): 8
- Number 10015 Sensitive (SuFe41.37): 24
- Ratio Sensitive/Resistant (SuFe41.37): 3.0
- Number 10015 Resistant (SuFe41.56): 32
- Number 10015 Sensitive (SuFe41.56): 0
- Ratio Sensitive/Resistant (SuFe41.56): 0
- Number 10015 Resistant (SuFe41.60): 15
- Number 10015 Sensitive (SuFe41.60): 0
- Ratio Sensitive/Resistant (SuFe41.60): 0
- Compound 10015 Sensitive (plants demonstrating result/total plants) (SuFell.1): 2/9
- Compound 10015 Sensitive (plants demonstrating result/total plants) (SuFell.11): 0/9
- Compound 10015 Sensitive (plants demonstrating result/total plants) (SuFell.3): 0/8
- Compound 10015 Sensitive (plants demonstrating result/total plants) (SuFell.4): 0/10
- Compound 10015 Sensitive (plants demonstrating result/total plants) (SuFell.7): 0/9
- Compound 10015 Sensitive (plants demonstrating result/total plants) (SuFell.8): 1/10
